The values that follow come from patent publication US9694016B2 (Novartis AG, priority 2013, dated 2017).

The target in one test is b-Raf (V600E) (Homo sapiens (Human), UniProt P15056, V600E). Particulars: read-out: b-Raf IC-50; AlphaScreen, 60 min pre-incubation, 3 hours reaction.
Sequence of b-Raf (V600E) (P15056 whole entry V600E): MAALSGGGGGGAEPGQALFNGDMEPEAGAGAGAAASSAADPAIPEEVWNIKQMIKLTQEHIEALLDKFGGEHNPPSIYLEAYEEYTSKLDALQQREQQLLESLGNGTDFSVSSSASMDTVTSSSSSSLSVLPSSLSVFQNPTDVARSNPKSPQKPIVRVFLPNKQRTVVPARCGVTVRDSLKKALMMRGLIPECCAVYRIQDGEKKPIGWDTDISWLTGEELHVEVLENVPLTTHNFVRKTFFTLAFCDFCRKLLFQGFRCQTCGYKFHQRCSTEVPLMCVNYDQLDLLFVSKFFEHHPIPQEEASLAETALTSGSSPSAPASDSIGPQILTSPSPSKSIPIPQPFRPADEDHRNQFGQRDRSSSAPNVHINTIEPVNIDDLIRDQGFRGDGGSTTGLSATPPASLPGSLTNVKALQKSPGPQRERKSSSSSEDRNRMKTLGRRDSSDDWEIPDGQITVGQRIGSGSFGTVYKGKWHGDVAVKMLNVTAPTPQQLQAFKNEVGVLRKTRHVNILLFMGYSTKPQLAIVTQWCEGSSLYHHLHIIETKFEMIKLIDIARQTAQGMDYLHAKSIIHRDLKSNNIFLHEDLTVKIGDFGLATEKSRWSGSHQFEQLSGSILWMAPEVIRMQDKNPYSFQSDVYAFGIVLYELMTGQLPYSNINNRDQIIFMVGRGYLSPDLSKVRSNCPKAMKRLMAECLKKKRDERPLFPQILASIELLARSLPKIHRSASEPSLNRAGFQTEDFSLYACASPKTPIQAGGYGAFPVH
Take `Cc1ncc(NC(=O)c2ccnc(C(F)F)c2)cc1-c1cncc(N2CCOCC2)n1` [Example 535, 2-(difluoromethyl)-N-(6-methyl-5-(6-morpholinopyrazin-2-yl)pyridin-3-yl)isonicotinamide]: the IC50 is 45.5 nM.

Regarding `Cc1ncc(NC(=O)c2cc(CN(C)C)cc(C(F)(F)F)c2)cc1-c1ccc(C#N)c(N2CCOCC2)c1` [Example 685, N-(5-(4-cyano-3-morpholinophenyl)-6-methylpyridin-3-yl)-3-((dimethylamino)methyl)-5-(trifluoromethyl)benzamide], the IC50 turned out to be 21.4 nM.

Turning to `Cc1ccc(NC(=O)c2cccc(C(F)(F)F)c2)cc1-c1nc(N2CCOCC2)c2occc2n1` [Example 838, N-(4-methyl-3-(4-morpholinofuro[3,2-d]pyrimidin-2-yl)phenyl)-3-(trifluoromethyl)benzamide], the IC50 is 0.9 nM.

On to `Cc1ccc(NC(=O)c2ccnc(C(F)(F)F)c2)cc1-c1cc(N2CCOCC2)n(C)c(=O)c1` [Example 485, N-(4-methyl-3-(1-methyl-6-morpholino-2-oxo-1,2-dihydropyridin-4-yl)phenyl)-2-(trifluoromethyl)isonicotinamide], for which the IC50 was found to be 1.1 nM.

As for `CCOc1nnc(-c2cc(NC(=O)c3ccc(CN(C)C)c(C(F)(F)F)c3)ccc2C)cc1N1CCOCC1` [Example 576, 4-((dimethylamino)methyl)-N-(3-(6-ethoxy-5-morpholinopyridazin-3-yl)-4-methylphenyl)-3-(trifluoromethyl)benzamide], the IC50 was 3.5 nM.

Take `CCNc1nc(-c2cc(NC(=O)c3ccnc(C(C)(C)O)c3)ccc2C)cc(N2CCOCC2)n1` [Example 705, N-(3-(2-(ethylamino)-6-morpholinopyrimidin-4-yl)-4-methylphenyl)-2-(2-hydroxypropan-2-yl)isonicotinamide]: the IC50 was found to be 4.1 nM.

As to `Cc1ccc(NC(=O)c2ccnc(C3CC3)c2)cc1-c1cc(N2CCOCC2)n(C)c(=O)c1` [Example 477, 2-cyclopropyl-N-(4-methyl-3-(1-methyl-6-morpholino-2-oxo-1,2-dihydropyridin-4-yl)phenyl)isonicotinamide], the IC50 was 0.4 nM.

`Cc1ncc(NC(=O)c2cccc(C(F)(F)F)c2)cc1-c1cc(N2CCOCC2)nc(N[C@H](C)CO)n1` [Example 748, (R)—N-(5-(2-((1-hydroxypropan-2-yl)amino)-6-morpholinopyrimidin-4-yl)-6-methylpyridin-3-yl)-3-(trifluoromethyl)benzamide]: the IC50 is 1.9 nM.

On to `Cc1ccc(NC(=O)c2cccc(C(F)(F)F)c2)cc1-c1nc2c(c(N3CCOCC3)n1)CNC2` [Example 836, N-(4-methyl-3-(4-morpholino-6,7-dihydro-5H-pyrrolo[3,4-d]pyrimidin-2-yl)phenyl)-3-(trifluoromethyl)benzamide], for which the IC50 came out at 3.1 nM.

Consider `COc1nnc(-c2cc(NC(=O)c3ccnc(C4CC4)c3)cnc2C)cc1N1CCOCC1` [Example 606, 2-cyclopropyl-N-(5-(6-methoxy-5-morpholinopyridazin-3-yl)-6-methylpyridin-3-yl)isonicotinamide], for which the IC50 came out at 3.5 nM.

As for `CCOc1nnc(-c2cc(NC(=O)c3ccc(CNC)c(C(F)(F)F)c3)cnc2C)cc1N1CCOCC1` [Example 626, N-(5-(6-ethoxy-5-morpholinopyridazin-3-yl)-6-methylpyridin-3-yl)-4-((methylamino)methyl)-3-(trifluoromethyl)benzamide], the IC50 stood at 14 nM.

Regarding `Cc1ccc(NC(=O)c2ccnc(C(C)(C)C#N)c2)cc1-c1cc(N2CCOC(C)(C)C2)c(=O)n(C)n1` [Example 666, 2-(2-cyanopropan-2-yl)-N-(3-(5-(2,2-dimethylmorpholino)-1-methyl-6-oxo-1,6-dihydropyridazin-3-yl)-4-methylphenyl)isonicotinamide], the IC50 came to 7.8 nM.

On to `Cc1ccc(NC(=O)c2cnnc(C(F)(F)F)c2)cc1-c1cc(N2CCOCC2)c(=O)n(C)n1` [Example 647, N-(4-methyl-3-(1-methyl-5-morpholino-6-oxo-1,6-dihydropyridazin-3-yl)phenyl)-6-(trifluoromethyl)pyridazine-4-carboxamide], for which the IC50 is 5.3 nM.

For `CCOc1nnc(-c2cc(NC(=O)c3ccnc(C(C)(C)C#N)c3)cnc2C)cc1N1CCOCC1` [Example 613, 2-(2-cyanopropan-2-yl)-N-(5-(6-ethoxy-5-morpholinopyridazin-3-yl)-6-methylpyridin-3-yl)isonicotinamide], the IC50 is 10 nM.

For the compound `Cc1ccc(NC(=O)c2ccnc(C(C)(F)F)c2)cc1-c1cc(N2CCOC[C@@H]2C)n(C)c(=O)c1` [Example 525, (S)-2-(1,1-difluoroethyl)-N-(4-methyl-3-(1-methyl-6-(3-methylmorpholino)-2-oxo-1,2-dihydropyridin-4-yl)phenyl)isonicotinamide], the IC50 came to 3.8 nM.

Still in this test, the particulars now being: read-out: b-Raf IC-50; AlphaScreen, 60 min pre-incubation, reaction 3 hours at room temperature.
As to `Cc1ncc(NC(=O)c2ccnc(C3(C#N)CC3)c2)cc1-c1cc(N2CCOCC2)nc(N2CC(C)(O)C2)c1` [Example 1109, 2-(1-cyanocyclopropyl)-N-(2′-(3-hydroxy-3-methylazetidin-1-yl)-2-methyl-6′-morpholino-[3,4′-bipyridin]-5-yl)isonicotinamide], the IC50 is 8.02 nM.

`Cc1ncc(NC(=O)c2cnnc(C3CC3)c2)cc1-c1cc(NCCO)nc(N2CCOCC2)c1` [Example 1052, 6-cyclopropyl-N-(2′-((2-hydroxyethyl)amino)-2-methyl-6′-morpholino-[3,4′-bipyridin]-5-yl)pyridazine-4-carboxamide]: the IC50 worked out at 8.24 nM.

Take `Cc1ccc(NC(=O)c2ccnc(C(C)(C)C#N)c2)cc1-c1cc(N2CCOCC2)nc(N2CC(O)C2)c1` [Example 1059, 2-(2-cyanopropan-2-yl)-N-(3-(2-(3-hydroxyazetidin-1-yl)-6-morpholinopyridin-4-yl)-4-methylphenyl)isonicotinamide]: the IC50 is 3.84 nM.

For the compound `Cc1ncc(NC(=O)c2cccc(C(F)(F)F)c2)cc1-c1cnc(O[C@@H](C)CO)c(N2CCOCC2)c1` [Example 985, (S)—N-(6′-((1-hydroxypropan-2-yl)oxy)-2-methyl-5′-morpholino-[3,3′-bipyridin]-5-yl)-3-(trifluoromethyl)benzamide], the IC50 was found to be 2.01 nM.

Consider `Cc1ncc(NC(=O)c2cccc(S(C)(=O)=O)c2)cc1-c1cc(N2CCOCC2)nc(N2CC(O)C2)c1` [Example 1084, N-(2′-(3-hydroxyazetidin-1-yl)-2-methyl-6′-morpholino-[3,4′-bipyridin]-5-yl)-3-(methylsulfonyl)benzamide], for which the IC50 came out at 23.3 nM.

As to `Cc1ccc(NC(=O)c2ccnc(C(C)(C)C#N)c2)cc1-c1nc(N2CCOCC2)c2c(cnn2C)n1` [Example 861, 2-(2-cyanopropan-2-yl)-N-(4-methyl-3-(1-methyl-7-morpholino-1H-pyrazolo[4,3-d]pyrimidin-5-yl)phenyl)isonicotinamide], the IC50 amounted to 2.5 nM.

Turning to `Cc1ccc(NC(=O)c2cncc(C(F)(F)F)c2)cc1-c1cnc(OCCO)c(N2CCOCC2)c1` [Example 1001, N-(3-(6-(2-hydroxyethoxy)-5-morpholinopyridin-3-yl)-4-methylphenyl)-5-(trifluoromethyl)nicotinamide], the IC50 is 1.36 nM.

`Cc1ncc(NC(=O)c2ccnc(C(C)(C)O)c2)cc1-c1cc(NCCO)nc(N2CCOCC2)c1` [Example 1046, N-(2′-((2-hydroxyethyl)amino)-2-methyl-6′-morpholino-[3,4′-bipyridin]-5-yl)-2-(2-hydroxypropan-2-yl)isonicotinamide]: the IC50 was 68.4 nM.

`Cc1ncc(NC(=O)c2cccc(C(F)F)c2)cc1-c1cc(NCCO)nc(N2CCOCC2)c1` [Example 1038, 3-(difluoromethyl)-N-(2′-((2-hydroxyethyl)amino)-2-methyl-6′-morpholino-[3,4′-bipyridin]-5-yl)benzamide]: the IC50 is 2.86 nM.

As for `CCn1cc(C(=O)Nc2cnc(C)c(-c3cc(N4CCOCC4)nc(N4CC(O)C4)c3)c2)cc(C(F)(F)F)c1=O` [Example 1086, 1-ethyl-N-(2′-(3-hydroxyazetidin-1-yl)-2-methyl-6′-morpholino-[3,4′-bipyridin]-5-yl)-6-oxo-5-(trifluoromethyl)-1,6-dihydropyridine-3-carboxamide], the IC50 turned out to be 20.7 nM.

Staying with this test, now noted: read-out: b-Raf IC-50; Table 2; AlphaScreen, 3 hours reaction.
`Cc1ncc(NC(=O)c2ccnc(C(C)(C)F)c2)cc1-c1cnc(OC2CCOCC2)c(N2CCOCC2)c1` [Example 273, 2-(2-fluoropropan-2-yl)-N-(2-methyl-5′-morpholino-6′-((tetrahydro-2H-pyran-4-yl)oxy)-[3,3′-bipyridin]-5-yl)isonicotinamide]: the IC50 worked out at 2.7 nM.

Turning to `CCn1cc(-c2cc(NC(=O)c3ccnc(C(C)(C)C#N)c3)cnc2C)cc(N2CCOCC2)c1=O` [Example 332, 2-(2-cyanopropan-2-yl)-N-(1′-ethyl-2-methyl-5′-morpholino-6′-oxo-1′,6′-dihydro-[3,3′-bipyridin]-5-yl)isonicotinamide], the IC50 worked out at 23.2 nM.

For the compound `Cc1ccc(NC(=O)c2ccnc(C(C)(C)C#N)c2)cc1-c1cnc(OC(F)F)c(N2CCOCC2)c1` [Example 223, 2-(2-cyanopropan-2-yl)-N-(3-(6-(difluoromethoxy)-5-morpholinopyridin-3-yl)-4-methylphenyl)isonicotinamide], the IC50 stood at 2.2 nM.

`Cc1ccc(NC(=O)c2cccc(C(F)(F)F)c2)cc1-c1cc(N2CCOCC2)cnn1` [Example 59, N-(4-methyl-3-(5-morpholinopyridazin-3-yl)phenyl)-3-(trifluoromethyl)benzamide]: the IC50 is 2.8 nM.

Consider `Cn1cc(-c2cc(NC(=O)c3ccnc(C(F)(F)F)c3)ccc2C#N)cc(N2CCOCC2)c1=O` [Example 415, N-(4-cyano-3-(1-methyl-5-morpholino-6-oxo-1,6-dihydropyridin-3-yl)phenyl)-2-(trifluoromethyl)isonicotinamide], for which the IC50 was determined as 10100 nM.

As for `Cc1ncc(NC(=O)c2ccnc(C(C)(C)F)c2)cc1-c1cncc(N2CCOCC2)c1` [Example 294, 2-(2-fluoropropan-2-yl)-N-(2-methyl-5′-morpholino-[3,3′-bipyridin]-5-yl)isonicotinamide], the IC50 turned out to be 10.8 nM.
